These results are taken from patent US20230355647A1, “Marker for determining anti-cancer effects of mitochondrial oxidative phosphorylation pathway inhibitor” (NANJING SHIJIANG MEDICINE TECHNOLOGY CO., LTD, priority 2020, published 2023).

The subject of one assay is NCI-H82 tumor. The assay can be described thus: Subcutaneous NCI-H82 tumor-bearing nude mice. The conditions noted are these: nude mice inoculated with NCI-H82; 10 mg/kg/day intraperitoneally; vs solvent vehicle; FIG. 25. Format: in vivo. An excerpt:
(§1) To verify whether cells sensitive to mitochondrial oxidative phosphorylation pathway […] still maintained the sensitivity to oxidative phosphorylation pathway inhibitors in vivo, S-Gboxin was used to test the effectiveness in tumor-bearing mice subcutaneously inoculated with sensitive cells (NCI-H82) and insensitive cells (CFPAC-1).
(§2) 5×10^6 of NCI-H82, NCI-H82-NNMT^ov (inserting the NNMT gene into NCI-H82 cell using a viral vector to overexpress NNMT protein) and CFPAC-1 tumors were subcutaneously inoculated in nude mice to establish tumor-bearing mice. Each group of tumor-bearing mice was injected intraperitoneally with the S-Gboxin (a mitochondrial oxidative phosphorylation pathway inhibition) at a dose of 10 mg/kg/day, the inhibition effect of S-Gboxin on the tumor was investigated. The mice in control group was injected intraperitoneally with solvent vehicle in the same method, and the tumor volume was calculated as follows: tumor volume=½ length×width 2. The experiment result was shown in FIG. 25, FIG. 26, and FIG. 27.

Assay [1] has as its system mitochondrial oxidative phosphorylation pathway. Description: Oxygen consumption of NCI-H82 cell, Seahorse XFe metabolic analyzer. Format: cell-based, human. The following applies: detection within 0.5 h, compared with control group, FIG. 1 (n=3). An excerpt: The oxygen was mainly consumed by mitochondrial oxidative phosphorylation pathway in the cell, thus the determination of oxygen consumption rate (OCR) of mitochondria could directly reflect the activity of mitochondrial oxidative phosphorylation pathway. The oxygen consumption of NCI-H82 cell in the presence or absence of Oligomycin A, Gboxin, S-Gboxin and IACS-010759, mitochondrial oxidative phosphorylation pathway inhibitors, was detected using Seahorse XFe metabolic analyzer in the present Example. NCI-H82 cell (ATCC, No. […] The control group in absence of mitochondrial oxidative phosphorylation pathway inhibitor was set. The detection of cell oxygen consumption was finished within 0.5 h.

The next assay concerns NCI-H82-NNMT^ov tumor. The assay can be described thus: Subcutaneous NCI-H82-NNMT^ov tumor-bearing nude mice. Format: in vivo. The conditions noted are these: nude mice inoculated with NCI-H82-NNMT^ov; 10 mg/kg/day intraperitoneally; compared with effect on NCI-H82 tumor; FIG. 26.
From the text: as §1, §2

The test system of a further assay is CFPAC-1 tumor. The assay can be described thus: Subcutaneous CFPAC-1 tumor-bearing nude mice. Format: in vivo. The conditions noted are these: nude mice inoculated with CFPAC-1; 10 mg/kg/day intraperitoneally; vs solvent vehicle; FIG. 27.
From the text: as §1, §2

The next assay concerns SW48. The assay can be described thus: Cell viability (CellTiter-Glo), SW48. Format: cell-based. The conditions noted are these: Homo sapiens; SW48 cell line, 3-4 days of culture. The protocol:
(§3) Cell viability was detected using the Promega CellTiter-Glo kit, the kit reflected cell viability by directly measuring intracellular ATP content. The inhibitory effect (IC50 value) of Gboxin, a mitochondrial oxidative phosphorylation pathway inhibitor, on different tumor cell lines was tested in the Example. The name, source, and culture condition of each tumor cell line were as follows: Cell line SW48 (ATCC, No. CCL-231) was cultured in 10% fetal bovine serum-containing Leibovitz's L-15 medium (+P/S). […] Cell viability was detected using the Promega CellTiter-Glo kit, the kit reflected cell viability by directly measuring intracellular ATP content.
In general terms: ATP-based viability assays read luminescence as a measure of living cells.

The test system of the next assay is 786-O. Description: Cell viability (CellTiter-Glo), 786-O. Format: cell-based. The conditions noted are these: Homo sapiens, 786-0; 786-O cell line, 3-4 days of culture. The protocol: as §3, with “786-O” for “SW48”, “CRL-1932)” for “CCL-231)”, “RPMI1640” for “Leibovitz's L-15”
Another assay relates to WSU-DLCL2. The assay can be described thus: Cell viability (CellTiter-Glo), WSU-DLCL2. Format: cell-based. The conditions noted are these: Homo sapiens, WSUDLCL2; WSU-DLCL2 cell line, 3-4 days of culture. The procedure:
as §3, with “WSU-DLCL2 (DSMZ,” for “SW48 (ATCC,”, “ACC-575)” for “CCL-231)”, “RPMI1640” for “Leibovitz's L-15”

Another assay has as its system SF126. Description: Cell viability (CellTiter-Glo), SF126. Format: cell-based. The conditions noted are these: Homo sapiens, SF-126; SF126 cell line, 3-4 days of culture. The protocol:
as §3, with “SF126 (JCRB,” for “SW48 (ATCC,”, “IFO50286)” for “CCL-231)”, “EMEM” for “Leibovitz's L-15”

Assay [2] concerns brain tumors and acute myeloid leukemia. The following applies: study published in Nature Medicine (2018); cited from earlier work.
The test system of a further assay is G-401. The assay can be described thus: Cell viability (CellTiter-Glo), G-401. Format: cell-based. The following applies: Homo sapiens; G-401 cell line, 3-4 days of culture. The procedure:
as §3, with “G-401” for “SW48”, “CRL-1441)” for “CCL-231)”, “McCoy's 5a” for “Leibovitz's L-15”

Another assay concerns MDA-MB-453. The assay can be described thus: Cell viability (CellTiter-Glo), MDA-MB-453. Format: cell-based. The conditions noted are these: Homo sapiens; MDA-MB-453 cell line, 3-4 days of culture. The protocol:
as §3, with “MDA-MB-453” for “SW48”, “HTB-131)” for “CCL-231)”

Another assay deals with CFPAC-1. Description: Cell viability (CellTiter-Glo), CFPAC-1. Format: cell-based. The following applies: Homo sapiens; CFPAC-1 cell line, 3-4 days of culture. The protocol:
as §3, with “CFPAC-1” for “SW48”, “CRL-1918)” for “CCL-231)”, “IMDM” for “Leibovitz's L-15”

For another assay, the system named is NCI-H82. Description: Cell viability (CellTiter-Glo), NCI-H82. The conditions noted are these: Homo sapiens; NCI-H82 cell line, 3-4 days of culture. Format: cell-based. The protocol:
as §3, with “NCI-H82” for “SW48”, “HTB-175)” for “CCL-231)”, “RPMI1640” for “Leibovitz's L-15”

Another assay has as its system GB-1. Description: Cell viability (CellTiter-Glo), GB-1. Format: cell-based. The conditions noted are these: Homo sapiens; GB-1 cell line, 3-4 days of culture. The procedure:
Cell viability was detected using the Promega CellTiter-Glo kit, the kit reflected cell viability by directly measuring intracellular ATP content. The inhibitory effect (IC50 value) of Gboxin, a mitochondrial oxidative phosphorylation pathway inhibitor, on different tumor cell lines was tested in the Example. The name, source, and culture condition of each tumor cell line were as follows:
Cell line GB-1 (JCRB, No. IFO50489) was cultured in 10% fetal bovine serum-containing DMEM medium (+P/S).
The above tumor cells were cultured in the relevant medium (+P/S), and incubated for 3 h, then the gradient diluted Gboxin was added, and IC50 (50% inhibiting concentration) was measured after 3-4 days of culture.
Cell viability was detected using the Promega CellTiter-Glo kit, the kit reflected cell viability by directly measuring intracellular ATP content. In this experiment, the IC50 values of Oligomycin A or IACS-010759, a mitochondrial oxidative phosphorylation pathway inhibitor, on different tumor cells was determined.
The different tumor cells were cultured in the relevant medium (+P/S) as shown in Example 2, and incubated for 3 h, then the gradient diluted Oligomycin A or IACS-010759 was added respectively, and IC50 (50% inhibiting concentration) of Oligomycin A or IACS-010759 on different tumor cells was measured after 3-4 days of culture.

pIC50: −log10 of the molar value.

Broadly, the pIC50 is the IC50 on a negative log10 scale, so that one unit is a factor of ten.

Take `CC(C)[C@@H]1CC[C@@H](C)C[C@H]1OC(=O)Cn1c(-c2cccc(C(F)(F)F)c2)[n+](C)c2ccccc21.[I-]` [S-Gboxin]: the “inhibition of subcutaneous tumor (tumor volume)” value in the assay with NCI-H82 tumor is listed as “significantly inhibit”. Also, in [1] (5 μM inhibitor), the “oxygen consumption of NCI-H82 cells” value is reported as “significantly inhibit”. Besides, the “inhibitory effect on subcutaneous tumor (tumor volume)” value is given as “significantly weaker” with NCI-H82-NNMT^ov tumor and “no significant inhibitory effect” with CFPAC-1 tumor.

As to `Cc1nc(-c2nc(-c3ccc(OC(F)(F)F)cc3)no2)nn1Cc1cccc(N2CCC(S(C)(=O)=O)CC2)c1` [IACS-010759], the negative logarithm of the IC50 (pIC50) was more than 8.00 in the assay on SW48; less than 4.30 with 786-O; 5.45 with WSU-DLCL2; less than 4.82 in the assay on SF126; 5.83 in the assay with G-401; more than 8.00 in the assay on MDA-MB-453. Also, the values for the pIC50 with CFPAC-1, with NCI-H82 and with GB-1 were 4.25, 6.77 and less than 4.82, respectively. In assay [2], the “inhibitory effect on brain tumors and acute myeloid leukemia” value was “excellent inhibitory effect”. Also, the “oxygen consumption of NCI-H82 cells” value in assay [1] (1 μM inhibitor) was “significantly inhibit”.
